# Experimental data taken from US20260022380A1, “GENETIC MODULATORS OF KRAS PROTEIN EXPRESSION AND THEIR USES” (Northwestern University, priority 2024, published 2026).
# How the values were obtained:
# [1] = tested on: human cell lines harboring KRAS mutations (colorectal, lung, pancreatic cancers); experiment: Cell viability assay (CellTiter-Glo, 7-day ELOVL6i treatment) across a cell line panel; format: cell-based
# Description: (§1) The cells were seeded in triplicates in 96-well plates at a density of 5,000-10,000 cells per well and treated with the indicated concentrations of ELOVL6 inhibitor. Assay plates were subjected to daily media exchange with fresh ELOVL6 inhibitor. Following treatment, cell viability was assessed after a period of 1-week treatment using the CellTiter-Glo Luminescent Cell Viability Assay (Promega, #G7571) with luminescence readings taken on a Cytation™ 3 cell imaging multi-mode reader (Fisher Scientific). The background value was indicated by cell medium without cells and was subtracted from the raw data. The fold change in cell viability was determined relative to control cells that received no treatment.
# [2] = tested on: mCherry-G12V KRAS expressing HT29 cells; experiment: mCherry-tagged G12V KRAS protein level after ELOVL6i treatment; format: cell-based, human; details: FIGS. 11A and 11B
# Description: To label intracellular markers, live cells were fixed with 4% paraformaldehyde (Fisher Scientific, #AA47377-9M) for 20 minutes, washed with PBS, permeabilized with 0.2% Triton X-100 (Sigma, X100-100ML) for 10 minutes, blocked with PBS with 2% BSA (flow buffer) for 30 minutes then stained with the antibodies prepared in flow buffer. Cells were incubated with primary antibodies for 1-hour at room temperature. Primary antibodies used were: anti-KRAS (Proteintech, #12063-1-AP), anti-phospho-ERK (Thr202/Tyr204) (Cell Signaling Technology, #4370S), and anti-ERK (Cell Signaling Technology, #4695S). After wash with flow buffer, cells were incubated with secondary antibodies for 30 minutes. […] Stained samples and the isotype control were analyzed immediately by flow cytometers. Data were analyzed using the FlowJo software. MFI was defined as median fluorescence across the cell population.
# HT29 and SW480 cells were transduced with mCherry-WT-KRAS (Addgene, #153335) or mCherry-G12V-KRAS (Addgene, #153336) plasmid for stable mCherry-KRAS expression. […] Images were analyzed by Fiji Image J. The mean fluorescence intensity of mCherry-KRAS was normalized to the time zero measurement of each FOV to generate relative mCherry-KRAS expression across the experiment's timespan. […]
# mCherry-G12V KRAS = experiment: Live-cell imaging of mCherry-KRAS and plasma membrane co-localization; format: cell-based, human; details: 40 μM, FIGS. 2H-2K
# Description: HT29 and SW480 cells were transduced with mCherry-WT-KRAS (Addgene, #153335) or mCherry-G12V-KRAS (Addgene, #153336) plasmid for stable mCherry-KRAS expression. Cells were seeded onto 35 mm glass bottom dish (Fisher Scientific, #NC0794151). ELOVL6 inhibitor was added at 40 μM prior to imaging. Cells were stained with CellBrite™ Steady 488 membrane dye (Biotium, #30106 T) for 30 minutes. Live cells were imaged using Nikon W1 dual cam spinning disk confocal with TIRF and a 100× objective. Five random fields of view (FOV) were selected, and an image/FOV was taken every 15 minutes for a duration of 20 hours. Images were analyzed by Fiji Image J. The mean fluorescence intensity of mCherry-KRAS was normalized to the time zero measurement of each FOV to generate relative mCherry-KRAS expression across the experiment's timespan. The Pearson's coefficient plugin JACop from ImageJ was used for quantification co-localization between mCherry-KRAS and cell membrane dye.
# [3] = tested on: cellular lipid composition (ELOVL6 fatty acid elongation); experiment: Lipidomic analysis (targeted fatty acids and shotgun lipidomics) of ELOVL6i treated cells; format: cell-based; details: 40 μM for 1-week
# Description: Cells were treated with ELOVL6 inhibitor at 40 μM for 1-week. Cell pellets were stored at −80° C. until sent for lipidomic analysis. Mass spectrometry-based shotgun untargeted lipid analysis and targeted fatty acids analysis were conducted by Lipotype (Dresden, Germany). Lipids were extracted using chloroform and methanol procedure as previously described (38). Samples were analyzed by automated direct infusion and orbitrap mass spectrometry. LipotypeXplorer was used for identification of lipids in the raw mass spectra (39). Alterations in lipid composition were determined based on mol % of total lipid normalized to untreated control samples.
# [4] = tested on: GTP-bound KRAS in G12V KRAS expressing HEK293 cells; experiment: RAS activation assay (active-KRAS pull-down) in HEK293 cells; format: cell-based, human; details: 40 μM for 3 days, FIG. 3D
# Description: (§2) Cells were treated with 40 μM of ELOVL6 inhibitor ELOVL6-IN-2 (MCE, HY-12146) for 3days and collected for protein extraction. RAS activity was assessed utilizing the active Ras pull-down and detection kit (Thermo Fisher Scientific, #16117). In brief, GST-RAF1 RBD and glutathione agarose resin were combined with whole-cell lysates and incubated on a rotator for 1 hour at 4° C. This was followed by three washes and elution with 2× SDS-PAGE loading buffer. The eluted samples were then subjected to western blotting to detect GTP-RAS.
# [5] = tested on: GTP-bound KRAS in cancer cell lines harboring G12V or G12D KRAS; experiment: RAS activation assay (active-KRAS pull-down) in mutant KRAS cancer cell lines; format: cell-based, human; details: multiple cancer cell lines harboring G12V or G12D KRAS, 40 μM for 3 days, FIGS. 3E-3G
# Description: as §2
# G12V KRAS in SW480 cells = experiment: KRAS protein expression after ELOVL6i treatment at different concentrations (immunoblot); format: cell-based, human; details: FIG. 2G
# Description: Whole-cell extracts were prepared using RIPA buffer (Sigma, #R0278) supplemented with protease and phosphatase inhibitor cocktail (Thermo Fisher Scientific, #78442) on ice for 20 minutes. Subsequently, the lysates were centrifuged at 10,000 g for 20 minutes, and the protein concentration was determined using the BCA assay (Thermo Fisher Scientific, #A55864). The proteins were separated on 4-15% precast protein gels (Bio-Rad, #4568084) in 1×-Tris-Glycine-SDS buffer (Bio-Rad, #1610772) at a constant voltage of 100V and transferred onto nitrocellulose membrane (Bio-Rad, #1620115) using 1× Tris-Glycine Buffer (Bio-Rad, 1610734) at 100V for 1 hour. Following transfer, membrane was blocked in 5% skim milk for 1 hour, then incubated at 4° C. with primary antibodies. Detection was performed using horseradish peroxidase (HRP)-conjugated secondary antibodies. Blots were visualized with chemiluminescent substrate (Thermo Fisher Scientific, #34580) using Azure imaging system. Immunoblots were quantified using ImageJ.
# [6] = tested on: G12V or G12D KRAS cell lines; experiment: Lipid add-back cell viability experiment; format: cell-based; details: 200 μM oleic acid or 20 μM stearic acid supplemented medium, FIGS. 5G and 19
# Description: as §1
# For the lipid-addback experiment, cells were treated with the indicated concentrations of ELOVL6 inhibitor in 200 μM of oleic acid (Sigma, #O1383-1G) or 20 μM of stearic acid (Sigma, #S4751-1G) supplemented medium.
# SW403 xenograft = experiment: SW403 G12V KRAS mutant xenograft study; format: in vivo
# Description: To establish cell-line-derived xenograft models, 5 million cells (SW403 and NCI-H441) suspended in PBS were subcutaneously injected to the right flanks of 8-week-old female athymic nude (nu/nu) mice purchased from the Jackson Laboratory. Once tumor reached approximately 50 mm3 volume, mice were randomized into groups (n=10) and treated with vehicle control (corn oil) or ELOVL6 inhibitor (dissolved in corn oil) dosed at 300 mg/kg. Treatment was administered twice daily by oral gavage. Tumor growth was measured 2-3 times per week using a caliper. Tumors were collected at the indicated timepoint and at the endpoint for analysis. For KRAS downstream signaling analysis, tumors were dissociated into single cells for flow cytometry analysis and protein was extract for western blotting.
# Tumor specimens were fixed in 10% formalin for at least 24 hours. Then washed with PBS and stored in 70% ethanol until paraffin embedding. Slides were stained using Dako Autostainer Plus. The following antibodies were used for staining: KRAS (Proteintech, #12063-1-AP), Ki-67 (Abcam, Ab15580), phospho-ERK (Cell Signaling Technology, #4370S), and ERK (Cell Signaling Technology, #4695s). Slides were then incubated with HRP labelled polymer anti-rabbit antibody (Agilent, K4003). All slides were […] through xylene and alcohol, them mounted, and cover slipped. Slides were scanned at 20× using a Nano Zoomer 2.0 HT (Hamamatsu Photonics).
# [7] = targeted lipidomic analysis, versus vehicle-treated controls, FIGS. 5A and 16
compound,measurement,setting,value
Cc1[nH]n(-c2ccc(OC(F)(F)F)cc2)c(=O)c1C1(C(F)(F)F)C(=O)N(c2ccccc2)C2=C1C(=O)CC(C)(C)C2 (centres unmarked) [ELOVL6i],sensitivity of mutant KRAS-expressing cells versus WT KRAS expressing cells,"[1]; 7-day treatment, FIGS. 4G-4I and 14",more sensitive
same,cell viability across KRAS variants,"[1]; G12V, G12D, G13D, G12C, G12R, Q61X, A146T cell lines, 7-day treatment, FIG. 4F",impacted cell viability across all KRAS variants tested
same,sensitivity of pancreatic cancer cell lines (antiproliferative effect),[1]; panel of human KRAS mutant cell lines,especially sensitive
same,lowering of mCherry-G12V KRAS,[2],dose-dependent effects
same,mCherry-G12V KRAS co-localization with cell membrane,mCherry-G12V KRAS,Significant reductions
same,mCherry-G12V KRAS fluorescence intensity,mCherry-G12V KRAS,Significant reductions
same,long-chain PUFA,[3]; ELOVL6i treated cells,increases
same,"sphingolipids, including sphingomyelin (SM) and Hexosyl-Ceramide (HexCer)","[3]; shotgun lipidomic analysis, FIG. 5C",significant reduction
same,levels of PtdSer,"[3]; shotgun lipidomic analysis, FIG. 5E",significantly altered
same,"glycerolipid abundance, including diacylglycerol (DAG) and triacylglycerol (TAG)","[3]; shotgun lipidomic analysis, FIGS. 5B and 18A",Notable increases
same,levels of oleate,[3]; [7],significant reduction
same,levels of stearate,[3]; [7],significant reduction
same,GTP-bound KRAS,[4],significantly reduced
same,cellular GTP-bound KRAS,[5],consistently reduced
same,effect on G12V KRAS protein level,G12V KRAS in SW480 cells,concentration-dependent effect
same,cell viability with exogenous oleic acid or stearic acid supplementation during ELOVL6i treatment,[6],enhanced cell viability
same,ERK phosphorylation (immunohistochemistry),"SW403 xenograft; SW403 tumor samples, FIG. 4E",significant decrease
same,expression of mutant KRAS (immunohistochemistry),"SW403 xenograft; SW403 tumor samples, FIG. 4E",significant decrease
same,ki-67 proliferation marker (immunohistochemistry),"SW403 xenograft; SW403 tumor samples, FIG. 4E",significant decrease
same,ERK phosphorylation in tumor samples,"SW403 xenograft; SW403 tumors, western blot and flow cytometry after 3-day, 1-week, 3-week treatment, FIGS. 13B-13D",time-dependent reduction
same,survival,"SW403 xenograft; SW403 xenograft, oral, 300 mg/kg, FIG. 4D",prolonged survival
same,tumor growth rate,"SW403 xenograft; SW403 xenograft, oral, 300 mg/kg, FIGS. 4B-4D",significant reduction
same,tolerability,"SW403 xenograft; mice bearing SW403 xenograft, oral, 300 mg/kg, FIG. 13A",well tolerated
